Reference: patent US7358268B2, “Imidazole derivatives as factor Xa inhibitors” (Sanofi-Aventis Deutschland GmbH, priority 2002, dated 2008)

target: T1, human factor Xa (Homo sapiens, UniProt P00742); experiment: Factor Xa assay (chromogenic, purified enzyme); format: biochemical; conditions: inhibition constant for factor Xa; chromogenic substrate S-2765 140 μM, enzyme 0.5 nM, 25° C., pH 7.8; Ki calculated from IC50 (Ki=IC50/{1+(substrate concentration/Km)}); read-out: Ki(FXa)
T1 construct: 25 μl human factor Xa (Enzyme Research Laboratories, Inc; South Bend, Ind.) in TBS-PEG; purchased Enzyme Research Laboratories, Inc; South Bend, Ind
Method: The ability of the compounds of the formula I to inhibit factor Xa or factor VIIa or other enzymes like thrombin, plasmin, or trypsin can be assessed by determining the concentration of the compound of the formula I that inhibits enzyme activity by 50%, i. e. the IC50 value, which was related to the inhibition constant Ki. Purified enzymes were used in chromogenic assays. The concentration of inhibitor that causes a 50% decrease in the rate of substrate hydrolysis was determined by linear regression after plotting the relative rates of hydrolysis (compared to the uninhibited control) versus the log of the concentration of the compound of formula I. For calculating the inhibition constant Ki, the IC50 value was corrected for competition with substrate using the formula Ki=IC50/{1+(substrate concentration/Km)} wherein Km is the Michaelis-Menten constant (Chen and Prusoff, Biochem. Pharmacol. 22 (1973), 3099-3108; I. H. Segal, Enzyme Kinetics, 1975, John Wiley & Sons, New York, 100-125; which were incorporated herein by reference). a) Factor Xa Assay
In the assay for determining the inhibition of factor Xa activity TBS-PEG buffer (50 mM Tris-HCl, pH 7.8, 200 mM NaCl, 0.05% (w/v) PEG-8000, 0.02% (w/v) NaN3) was used. The IC50 was determined by combining in appropriate wells of a Costar half-area microtiter plate 25 μl human factor Xa (Enzyme Research Laboratories, Inc.; South Bend, Ind.) in TBS-PEG; 40 μl 10% (v/v) DMSO in TBS-PEG (uninhibited control) or various concentrations of the compound to be tested diluted in 10% (v/v) DMSO in TBS-PEG; and substrate S-2765 (N(α)-benzyloxycarbonyl-D-Arg-Gly-L-Arg-p-nitroanilide; Kabi Pharmacia, Inc.; Franklin, Ohio) in TBS-PEG.
The assay was performed by pre-incubating the compound of formula I plus enzyme for 10 min. Then the assay was initiated by adding substrate to obtain a final volume of 100 μl. The initial velocity of chromogenic substrate hydrolysis was measured by the change in absorbance at 405 nm using a Bio-tek Instruments kinetic plate reader (Ceres UV900HDi) at 25° C. during the linear portion of the time course (usually 1.5 min after addition of substrate). The enzyme concentration was 0.5 nM and substrate concentration was 140 μM.

T1 sequence (P00742 235-488 limits assumed): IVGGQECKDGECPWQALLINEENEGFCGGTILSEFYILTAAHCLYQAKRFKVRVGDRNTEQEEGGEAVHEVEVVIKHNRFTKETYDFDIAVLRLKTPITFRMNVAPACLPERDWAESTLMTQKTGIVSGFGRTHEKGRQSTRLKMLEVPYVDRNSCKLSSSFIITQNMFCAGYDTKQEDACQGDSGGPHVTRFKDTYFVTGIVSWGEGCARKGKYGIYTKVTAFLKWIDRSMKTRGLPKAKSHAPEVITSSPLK
T1 sequence (P00742 41-179 partner limits assumed): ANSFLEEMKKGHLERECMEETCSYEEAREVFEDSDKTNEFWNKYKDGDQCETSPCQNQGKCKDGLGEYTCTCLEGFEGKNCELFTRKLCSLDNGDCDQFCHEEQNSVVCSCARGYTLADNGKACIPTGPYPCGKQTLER

For `CC(C)N1CCC(NC(=O)c2nc(C(N)=O)cn2Cc2cc(-c3ccc(Cl)s3)on2)CC1` [Example 41, 1-[5-(5-Chloro-thiophen-2-yl)-isoxazol-3-ylmethyl]-1H-imidazole-2,4-dicarboxylic acid 4-amide 2-[(1-isopropyl-piperidin-4-yl)-amide]], which Ki is on record?
The Ki was 46 nM.

Which Ki does the source give for `CC(C)N1CCC(NC(=O)c2nc(C(=O)N(C)CCO)cn2Cc2cc(-c3ccc(Cl)s3)on2)CC1` [Example 42] here?
Its Ki is 126 nM.

Which Ki does the source give for `CC(C)N1CCC(NC(=O)c2nc(C(=O)N3CC(O)C3)cn2Cc2cc(-c3ccc(Cl)s3)on2)CC1` [Example 43, 1-[5-(5-Chloro-thiophen-2-yl)-isoxazol-3-ylmethyl]-4-(3-hydroxy-azetidine-1-carbonyl)-1H-imidazole-2-carboxylic acid (1-isopropyl-piperidin-4-yl)-amide] here?
Its Ki is 62 nM.

With `CC(C)N1CCC(NC(=O)c2nc(C(=O)N(C)C)cn2Cc2cc(-c3ccc(Cl)s3)on2)CC1` [Example 44, 1-[5-(5-Chloro-thiophen-2-yl)-isoxazol-3-ylmethyl]-1H-imidazole-2,4-dicarboxylic acid 4-dimethylamide 2-[(1-isopropyl-piperidin-4-yl)-amide]] as the compound, how does the Ki read?
Its Ki is 136 nM.

How did the Ki turn out when `CC(C)N1CCC(NC(=O)c2nc(C(=O)OCC3CC3)cn2Cc2cc(-c3ccc(Cl)s3)on2)CC1` [Example 45, 1-[5-(5-Chloro-thiophen-2-yl)-isoxazol-3-ylmethyl]-2-(1-isopropyl-piperidin-4-ylcarbamoyl)-1H-imidazole-4-carboxylic acid cyclopropylmethyl ester] was run?
Its Ki is 57 nM.

`CC(C)N1CCC(NC(=O)c2nc(C(=O)OCC(=O)OC(C)(C)C)cn2Cc2cc(-c3ccc(Cl)s3)on2)CC1` [Example 46, 1-[5-(5-Chloro-thiophen-2-yl)-isoxazol-3-ylmethyl]-2-(1-isopropyl-piperidin-4-ylcarbamoyl)-1H-imidazole-4-carboxylic acid tert-butoxycarbonylmethyl ester] was tested. Which Ki did it give?
The Ki was 128 nM.

For `CC(C)N1CCC(NC(=O)c2nc(C(=O)NCCO)cn2Cc2cc(-c3ccc(Cl)s3)on2)CC1` [Example 47], which Ki is on record?
Its Ki is 77 nM.

How did the Ki turn out when `COC1CN(C(=O)c2cn(Cc3cc(-c4ccc(Cl)s4)on3)c(C(=O)NC3CCN(C(C)C)CC3)n2)C1` [Example 48, 1-[5-(5-Chloro-thiophen-2-yl)-isoxazol-3-ylmethyl]-4-(3-methoxy-azetidine-1-carbonyl)-1H-imidazole-2-carboxylic acid (1-isopropyl-piperidin-4-yl)-amide] was run?
The Ki was 91 nM.

With `COC(=O)CCc1cn(Cc2cc(-c3ccc(Cl)s3)on2)c(C(=O)NC2CCN(C(C)C)CC2)n1` [Example 49, 3-[1-[5-(5-Chloro-thiophen-2-yl)-isoxazol-3-ylmethyl]-2-(1-isopropyl-piperidin-4-ylcarbamoyl)-1H-imidazol-4-yl]-propionic acid methyl ester] as the compound, how does the Ki read?
Its Ki is 37 nM.

Which Ki does the source give for `CC(C)N1CCC(NC(=O)c2nccn2Cc2cc(-c3ccc(Cl)s3)on2)CC1` [Example 60, 1-[5-(5-Chloro-thiophen-2-yl)-isoxazol-3-ylmethyl]-1H-imidazole-2-carboxylic acid (1-isopropyl-piperidin-4-yl)-amide] here?
The Ki was 49 nM.

With `O=C(NCC1CCN(c2ccncc2)CC1)c1nccn1Cc1cc(-c2ccc(Cl)s2)on1` [Example 63, 1-[5-(5-Chloro-thiophen-2-yl)-isoxazol-3-ylmethyl]-1H-imidazole-2-carboxylic acid (3,4,5,6-tetrahydro-2H-[1,4′]bipyridinyl-4-ylmethyl)-amide] as the compound, how does the Ki read?
The Ki was 640 nM.

`O=C(NC1CCN(c2ccncc2)CC1)c1nccn1Cc1cc(-c2ccc(Cl)s2)on1` [Example 65, 1-[5-(5-Chloro-thiophen-2-yl)-isoxazol-3-ylmethyl]-1H-imidazole-2-carboxylic acid (3,4,5,6-tetrahydro-2H-[1,4′]bipyridinyl-4-yl)-amide] was tested. Which Ki did it give?
Its Ki is 118 nM.

How did the Ki turn out when `CC(C)N1CCC(NC(=O)c2cnc(C(=O)N3CCCOCC3)n2Cc2cc(-c3ccc(Cl)s3)on2)CC1` [Example 71, 3-[5-(5-Chloro-thiophen-2-yl)-isoxazol-3-ylmethyl]-2-(perhydro-1,4-oxazepine-4-carbonyl)-3H-imidazole-4-carboxylic acid (1-isopropyl-piperidin-4-yl)-amide] was run?
The Ki was 51 nM.
